According to patent publication US20060121449A1, “Method for selection of compounds which inhibit clonal cell growth and use thereof” (priority 2002, published 2006):
Entries after “also recorded” stand apart in the source; their conditions may differ.

How the values were obtained:
[1] = test system: polyoma virus transformed BHK21/c13 cells, clone S100T1; assay: Clonal test: clonal growth of S100T1 cells in soft agar (Exp 2, 4, 6, 15, 16); assay type: cell-based, hamster
Ehrlich ascites tumour = details: Exp 18
Description: Tumour cells harvested from ascitic mouse were mainly solitary.
The experiment describes transplantation of the malignant mouse Ehrlich ascites tumour to two adult male mice (NMRI/Bom). Each of them received 100000 cells intraperitonally. One mouse was treated two times a week with 4-OH-OPB intraperitonally.
Cells were injected 90 minutes after the addition of 4-OH-OPB to the suspension. The control received the same cell suspension without 4-OH-OPB.
At the same time, dilutions of 4-OH-OPB were injected intraperitonally to the transplanted mice in order to find the smallest active dose.
The cells from ascites in the untreated control mouse was frozen on serum with 10% DMSO. The cells were thawed in water of 37° C., diluted in serum, and pelleted by low speed centrifugation after the addition of 2 ml FBS, to remove DMSO.
Each animal received such cells suspended in portions of 1 ml in RPMI (pH˜6.9).
The frozen and thawed Ehrlich ascites cells are diluted in a volume of 1 ml RPMI (pH˜6.9) for each animal. No calf serum was added to the medium to avoid immunisation of the mice.
Cell number: 90000 tumour cells in 0.7 ml RPMI were injected intraperitonally to each animal.
The total cell number in the ampoule was 7.5 million cells. The cells were thawed, and 2 ml FBS was added before low speed centrifugation. […] Than separate vessels were prepared for each animal. The cell tube for animal number 3 received Colchicine as indicated in the table on day 0 one hour before the cells were injected.
After mixing the same volume was transferred from this tube to the last tube.
The content of the last two tubes was injected intraperitonally to each of the mice number 1 and 2 respectively.

[2] = test system: polyoma virus transformed BHK21/c13 cells, line S100T1; assay: Collocation inhibition test: clonal growth in sparsely and densely seeded areas of a cell density gradient of S100T1 cells in soft agar (Exp 13, 17, 19-26); details: for Significance: Exp 17 day 14;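 for Clonal growth, H high density area of cell gradient, High: grades rise with clonal growth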;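 for Clonal growth, H high density area of cell gradient, Low: grades rise with clonal growth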;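 for Clonal growth, H high density area of cell gradient, Medium: grades rise with clonal growth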;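 for Clonal growth, L low density area of cell gradient, High: grades rise with clonal growth and minus or plus-minus means none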;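 for Clonal growth, L low density area of cell gradient, Low: grades rise with clonal growth and minus or plus-minus means none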;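 for Clonal growth, L low density area of cell gradient, Medium: grades rise with clonal growth and minus or plus-minus means none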;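 for all read-outs here: soft agar cultures in 24-well plates with a cell density gradient in the top layer, compounds applied from DMSO stocks, clonal growth scored in sparse versus dense areas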
[3] = Exp 13, 4-OH-OPB 1-3 μM, Colchicine 0.01-0.1 μM
[4] = Exp 13, High inhibitor conc. (Colchicine 100 nM), H: high cell density area
[5] = Exp 13, High inhibitor conc. (Colchicine 100 nM), L: low cell density area
[6] = Exp 13, Low inhibitor conc. (4-OH—OPB 1 μM, Colchicine 10 nM), H: high cell density area
[7] = Exp 13, Low inhibitor conc. (4-OH—OPB 1 μM, Colchicine 10 nM), L: low cell density area
[8] = Exp 13, Medium inhibitor conc. (4-OH—OPB 3 μM, Colchicine 33 nM), H: high cell density area
[9] = Exp 13, Medium inhibitor conc. (4-OH—OPB 3 μM, Colchicine 33 nM), L: low cell density area
[10] = preliminary results, Exp 13-18, 21-26, high concentration
[11] = preliminary results, Exp 13-18, 21-26, low concentration
[12] = preliminary results, Exp 13-18, 21-26, medium concentration

For `COc1cc2c(c(OC)c1OC)-c1ccc(OC)c(=O)cc1[C@@H](NC(C)=O)CC2` [Colchicine, reference compound], the “Effect on clonal growth at 0.01-0.1 μM” value ([1]; Exp 15, 32000 S100T1 cells/well) was “did not inhibit clonal growth”, the “Colony inhibiting activity for dosage within a range that might be therapeutic” value ([1]; Exp 16, about 40000 S100T1 cells/well) was “the same activity possibly existed” and the Significance ([1]; Exp 16 day 14, Colchicine No 1 (lot 60K1932, solved in DMSO 8 days beforehand, stored frozen), 0.1 μM) was “doubtful”. For the same compound, the Growth ([1]; Exp 16 day 14, Colchicine No 1 (lot 60K1932, solved in DMSO 8 days beforehand, stored frozen), 0.1 μM in wells) was “(+”, the Significance ([1]; Exp 16 day 14, Colchicine No 1 (lot 60K1932, solved in DMSO 8 days beforehand, stored frozen), 1 μM) was “doubtful” and the Growth ([1]; Exp 16 day 14, Colchicine No 1 (lot 60K1932, solved in DMSO 8 days beforehand, stored frozen), 1 μM in wells) was “(+”. The Growth ([1]; Exp 16 day 14, Colchicine No 2 (lot 60K1932, solved in DMSO the same day), 0.1 μM in wells) was “(+”, the Significance ([1]; Exp 16 day 14, Colchicine No 2 (lot 60K1932, solved in DMSO the same day), 0.1 μM, ” = as line above) was “” and doubtful” and the Significance ([1]; Exp 16 day 14, Colchicine No 2 (lot 60K1932, solved in DMSO the same day), 1 μM) was “possible”. For the same compound, the Growth ([1]; Exp 16 day 14, Colchicine No 2 (lot 60K1932, solved in DMSO the same day), 1 μM in wells) was “(+)”, the Significance ([1]; Exp 16 day 14, Colchicine No 3 (lot 28H1229, solved in DMSO the same day), 0.1 μM) was “possible” and the Growth ([1]; Exp 16 day 14, Colchicine No 3 (lot 28H1229, solved in DMSO the same day), 0.1 μM in wells) was “(+)”. For the same compound, the Growth ([1]; Exp 16 day 14, Colchicine No 3 (lot 28H1229, solved in DMSO the same day), 0.22 μM in wells) was “(+)”, the Significance ([1]; Exp 16 day 14, Colchicine No 3 (lot 28H1229, solved in DMSO the same day), 0.22 μM, ” = as line above) was “” and possible” and the Growth ([1]; Exp 16 day 14, Colchicine No 4 (lot 28H1229, solved in DMSO the same day), 0.46 μM in wells) was “(+)”. The Significance ([1]; Exp 16 day 14, Colchicine No 4 (lot 28H1229, solved in DMSO the same day), 0.46 μM, ” = as line above) was “” and possible”, the Significance ([1]; Exp 16 day 14, Colchicine No 4 (lot 28H1229, solved in DMSO the same day), 1 μM) was “probable” and the Growth ([1]; Exp 16 day 14, Colchicine No 4 (lot 28H1229, solved in DMSO the same day), 1 μM in wells) was “(+))”. For the same compound, the Significance ([1]; Exp 16 day 21, Colchicine No 1 (lot 60K1932, solved in DMSO 8 days beforehand, stored frozen), 0.1 μM) was “no”, the Growth ([1]; Exp 16 day 21, Colchicine No 1 (lot 60K1932, solved in DMSO 8 days beforehand, stored frozen), 0.1 μM in wells) was “+” and the Significance ([1]; Exp 16 day 21, Colchicine No 1 (lot 60K1932, solved in DMSO 8 days beforehand, stored frozen), 1 μM) was “doubtful”. The Growth ([1]; Exp 16 day 21, Colchicine No 1 (lot 60K1932, solved in DMSO 8 days beforehand, stored frozen), 1 μM in wells) was “(+”, the Significance ([1]; Exp 16 day 21, Colchicine No 2 (lot 60K1932, solved in DMSO the same day), 0.1 μM) was “doubtful” and the Growth ([1]; Exp 16 day 21, Colchicine No 2 (lot 60K1932, solved in DMSO the same day), 0.1 μM in wells) was “(+”. The Significance ([1]; Exp 16 day 21, Colchicine No 2 (lot 60K1932, solved in DMSO the same day), 1 μM) was “possible”, the Growth ([1]; Exp 16 day 21, Colchicine No 2 (lot 60K1932, solved in DMSO the same day), 1 μM in wells) was “(+)” and the Growth ([1]; Exp 16 day 21, Colchicine No 3 (lot 28H1229, solved in DMSO the same day), 0.1 μM in wells) was “(+”. The Significance ([1]; Exp 16 day 21, Colchicine No 3 (lot 28H1229, solved in DMSO the same day), 0.1 μM, ” = as line above) was “” and doubtful”, the Significance ([1]; Exp 16 day 21, Colchicine No 3 (lot 28H1229, solved in DMSO the same day), 0.22 μM) was “doubtful” and the Growth ([1]; Exp 16 day 21, Colchicine No 3 (lot 28H1229, solved in DMSO the same day), 0.22 μM in wells) was “(+”. For the same compound, the Significance ([1]; Exp 16 day 21, Colchicine No 4 (lot 28H1229, solved in DMSO the same day), 0.46 μM) was “possible”, the Growth ([1]; Exp 16 day 21, Colchicine No 4 (lot 28H1229, solved in DMSO the same day), 0.46 μM in wells) was “(+)” and the Growth ([1]; Exp 16 day 21, Colchicine No 4 (lot 28H1229, solved in DMSO the same day), 1 μM in wells) was “(+”. The Significance ([1]; Exp 16 day 21, Colchicine No 4 (lot 28H1229, solved in DMSO the same day), 1 μM, ” = as line above) was “” and doubtful”, the “tumour in abdominal wall, findings on section” value (Ehrlich ascites tumour; at killing, control 2 × 3 mm tumour) was “Lens sized” and the “ascites with Ehrlich cells, findings on section” value (Ehrlich ascites tumour; at killing, control 4 ml) was 1.5 mL. The “day 14 status” value (Ehrlich ascites tumour; day 14 after ip transplantation, mouse 1 killed, mice 2 and 3 marked '?') was “Ascites”, the “day 16 status” value (Ehrlich ascites tumour; day 16, killed because of signs of ascites) was “Ascites” and the “Rescue of mice from transplanted Ehrlich tumour” value (Ehrlich ascites tumour; high dose mixed with the transplanted cells before injection) was “did not provide complete protection against the development of transplantable Ehrlich tumour; also recorded: not rescue the animal either. The conclusion is”. The “weight gain in %” value (Ehrlich ascites tumour; one mouse each, ip: mouse 1 4-OH—OPB from day 1, mouse 2 Etoposide + 4-OH—OPB from day 1, mouse 3 Colchicine from day 0, control mouse 42.4) was 23.8%, the “Growth in locations with high cell density” value [2, 3] was “did not inhibit clonal growth” and the “Growth in locations with low cell density (sparsely seeded cells)” value [2, 3] was “full inhibition on clonal growth of sparsely seeded cells; also recorded: inhibited growth in locations with low cell density even when using low doses”. The “Growth, summary of results after 3 days incubation” value (“Growth … after 3 days incubation” below) [2, 4] was “+++”, the “Growth, summary of results after 4 days incubation” value (shortened to “Growth … after 4 days incubation”) [2, 4] was “+++” and the “Growth … after 3 days incubation” value [2, 5] was “−”. The “Growth … after 4 days incubation” value [2, 5] was “−”, the “Growth … after 3 days incubation” value [2, 6] was “+++” and the “Growth … after 4 days incubation” value [2, 6] was “+++”. For the same compound, the “Growth … after 3 days incubation” value [2, 7] was “−”, the “Growth … after 4 days incubation” value [2, 7] was “+−” and the “Growth … after 3 days incubation” value [2, 8] was “+++”. The “Growth … after 4 days incubation” value [2, 8] was “+++”, the “Growth … after 3 days incubation” value [2, 9] was “−” and the “Growth … after 4 days incubation” value [2, 9] was “−”. For the same compound, the “Effect on growth in high- and low-density areas” value ([2]; Exp 17, 144000 S100T1 cells/well) was “did not inhibit the high-density areas significantly; also recorded: no complete clonal inhibition could be observed”, the “Clonal growth, results read on the day 14” value (“Clonal growth, results read” for short) ([2]; Exp 17, a: close to densely seeded cell areas, High: Colchicine 1, Podophyllotoxin 3, Etoposide 200, 4-OH—OPB 6.7 μM in wells, DMSO 29.2 μl) was “(+)” and the “Clonal growth, results read” value ([2]; Exp 17, a: close to densely seeded cell areas, Low: Colchicine 0.1, Podophyllotoxin 0.3, Etoposide 20, 4-OH—OPB 0.67 μM in wells, DMSO 1.16 μl) was “++”. For the same compound, the “Clonal growth, results read” value ([2]; Exp 17, a: close to densely seeded cell areas, Medium: Colchicine 0.3, Podophyllotoxin 0.9, Etoposide 60, 4-OH—OPB 2 μM in wells, DMSO 6.8 μl) was “++”, the “Clonal growth, results read” value ([2]; Exp 17, b: sparsely seeded areas in the same agar culture, High: Colchicine 1, Podophyllotoxin 3, Etoposide 200, 4-OH—OPB 6.7 μM in wells, DMSO 29.2 μl) was “(+)” and the “Clonal growth, results read” value ([2]; Exp 17, b: sparsely seeded areas in the same agar culture, Low: Colchicine 0.1, Podophyllotoxin 0.3, Etoposide 20, 4-OH—OPB 0.67 μM in wells, DMSO 1.16 μl) was “++”. For the same compound, the “Clonal growth, results read” value ([2]; Exp 17, b: sparsely seeded areas in the same agar culture, Medium: Colchicine 0.3, Podophyllotoxin 0.9, Etoposide 60, 4-OH—OPB 2 μM in wells, DMSO 6.8 μl) was “++”, the “Clones in sparsely seeded locations of the agar” value ([2]; Exp 17, compared with 4-OH-OPB) was “allow the growth of a few small clones in sparsely seeded locations of the agar; also recorded: to allow the growth of a few small clones in sparsely” and the Significance ([2]; a: close to densely seeded cell areas, High: Colchicine 1, Podophyllotoxin 3, Etoposide 200, 4-OH—OPB 6.7 μM in wells, DMSO 29.2 μl) was “Possible”. For the same compound, the Significance ([2]; a: close to densely seeded cell areas, Low: Colchicine 0.1, Podophyllotoxin 0.3, Etoposide 20, 4-OH—OPB 0.67 μM in wells, DMSO 1.16 μl) was “No”, the Significance ([2]; a: close to densely seeded cell areas, Medium: Colchicine 0.3, Podophyllotoxin 0.9, Etoposide 60, 4-OH—OPB 2 μM in wells, DMSO 6.8 μl) was “No” and the Significance ([2]; b: sparsely seeded areas, High: Colchicine 1, Podophyllotoxin 3, Etoposide 200, 4-OH—OPB 6.7 μM in wells, DMSO 29.2 μl) was “Possible”. The Significance ([2]; b: sparsely seeded areas, Low: Colchicine 0.1, Podophyllotoxin 0.3, Etoposide 20, 4-OH—OPB 0.67 μM in wells, DMSO 1.16 μl) was “No”, the Significance ([2]; b: sparsely seeded areas, Medium: Colchicine 0.3, Podophyllotoxin 0.9, Etoposide 60, 4-OH—OPB 2 μM in wells, DMSO 6.8 μl) was “No” and the “Clonal growth, H high density area of cell gradient, High” value [2, 10] was “+++”. For the same compound, the “Clonal growth, L low density area of cell gradient, High” value [2, 10] was “−”, the “Clonal growth, H high density area of cell gradient, Low” value [2, 11] was “+++” and the “Clonal growth, L low density area of cell gradient, Low” value [2, 11] was “−”. For the same compound, the “Clonal growth, H high density area of cell gradient, Medium” value [2, 12] was “+++”, the “Clonal growth, L low density area of cell gradient, Medium” value [2, 12] was “−” and the “Effect on cell cloning in soft agar” value ([2]; preliminary results, in words) was “Growth in high density areas; also recorded: No growth in low density areas”.
